Measured values from article PMC11206678, “Peptide-Alkoxyamine Drugs: An Innovative Approach to Fight Schistosomiasis: “Digging Their Graves with Their Forks”” (Pathogens, 2024).
Counter-ions that a name gives are not always drawn. Square brackets hold non-standard residues; d marks the D form. Peptide text beside a SMILES is read from it. * marks the point of attachment. Boc = CC(C)(C)OC(=O)*; OBn = c1ccc(CO*)cc1

Key:
[1] = system: Schistosoma mansoni adult worms; assay: Viability of Schistosoma mansoni adult worms in vitro; format: cell-based, Schistosoma mansoni NMRI strain; details: 37 °C; for time to kill all parasites / time to reach the death of half of the population of worms: Table S1, dose at 100 μg/ml, unit not given in Table S1 (h in Table 2); for Activity/toxicity towards schistosomes (in words): adult worms; for Activity/toxicity towards schistosomes (in words) / Time to Kill 50% of Parasites / Time to Kill 100% of Parasites: 100 μg/mL; for Time to Kill 50% of Parasites / Time to Kill 100% of Parasites: adult worms in RPMI 1640/Tween 80/DMSO, observed up to 72 h, duplicate wells
Experimental: Experiments on the viability of Schistosoma mansoni adult worms. In vitro tests were performed on Schistosoma mansoni NMRI strains. This parasite is lab maintained on Biomphalaria glabrata (BRE strain) as intermediate mollusc host and Golden Hamster (Janvier Labs, Le Genest-Saint-Isle, France) as definitive vertebrate host. Methods, for molluscs’ and hamsters’ infection and for parasite recovery, were previously described. Adult worms were recovered by hepatic perfusion technique between 42 and 47 days post hamster exposition to parasite larvae. Worms were carefully collected and disposed in 12-well Falcon® plate containing 2 mL of RPMI 1640 (supplemented with L-glutamine and Hepes 25 mM). The plates containing a minimum of 15 worms by well were then placed in an incubator chamber at 37 °C and 5% CO2. The worms sex ratio was almost balanced in each well. The drug was first dissolved in DMSO (Sigma-Aldrich) to give a 100 mg/mL mother solution. Then the stock solution was complemented with Tween 80 and RPMI to obtain the following final ratio dilution: RPMI 1640/Tween 80/DMSO and 1000/0.95/3.8, v/v/v.
All molecules were tested at a final concentration of 100 µg/mL and 10 µg/mL. A negative control consisted in adding the same RPMI 1640/Tween 80/DMSO solution, but without any drug and a positive control consisted in adding praziquantel. All molecules and control were performed in duplicates of well. The worm viability was checked after 1, 2, 3, 4, 5, 6, 7, 8, 24, 48, and 72 h after adding the molecule.

Vero cells = format: cell-based; details: 48 h
Experimental: A non-cancer line of Vero cells was used to determine the cytotoxicity of the compound against mammalian cells. They were evaluated at a final DMSO concentration of 0.5%. The culture medium was MEM (Dutscher, Bernolsheim, France) supplemented with 10% fetal bovine serum (Fisher Scientific, Illkirch, France), 1X non-essential amino acids (Fisher Scientific, Illkirch, France), 100 U/mL, 100 µg/mL penicillin/streptomycin (Fisher Scientific, Illkirch, France), and 2 mM L-glutamine (Fisher Scientific, Illkirch, France) at 37 °C in a humidified 5% CO2 atmosphere. Vero cells (100 µL of 10^5 cells/mL per well) were plated in 96-well plates for 24 h then treated with 100 µL of compound dilutions (in duplicate) during 48 h. All molecules were tested from 5 nM to 50 µM. Each well was then examined under the microscope to detect any precipitate formation before the supernatant was removed by flicking the plate. A volume of 100 µL of 0.5 mg/mL in MEM from a stock solution at 5 mg/mL of PBS-dissolved MTT (3-(4,5-dimethylthiazol-2-yl)-2,5-diphenyltetrazolium bromide, Sigma Aldrich/Merck, Darmstadt, Germany) was then added to each well [20].
After incubation for 1 h at 37 °C and 5% CO2 the supernatant was removed and 100 µL of DMSO were added. Plates were gently shaken to dissolve formazan crystals resulting from the MTT reduction by living cells and read at 570 nm with the VICTOR Nivo plate reader (Perkin Elmer, Waltham, MA, USA). CC50 values were determined using GraphPad Prism 7 software (San Diego, CA, USA).

[2] = Homolysis kinetics of alkoxyamines by EPR (growth of nitroxide); format: physicochemical; details: mixture of diastereoisomers; for Homolysis rate constant kd: 0.1 mM alkoxyamine, O2 as alkyl radical scavenger; for Activation energy Ea: by Equation (2) from kd and T, A = 2.4 10^14 s^−1
Experimental: Preparation of alkoxyamines and reference samples. All reagents including anhydrous solvents used for the chemical synthesis were purchased from commercially available sources such as Merck, TCI, and Fluorochem, and were used without further purification. All air and/or water-sensitive reactions were carried out under an argon atmosphere with dry solvents using standard syringe-cannula/septa techniques. Routine monitoring of reactions was performed using Merck Silica gel 60 F254, aluminum-supported TLC plates; spots were visualized using UV light and ethanolic acidic para-anisaldehyde solution or ethanolic phosphomolybdic solution, followed by heating. Purifications by means of column chromatography were performed with Silica gel 60 (230–400 mesh). ^1H, ^13C, and ^19F NMR spectra were obtained in CDCl3, MeOD (with residual H2O), D2O, DMSO-d6, or C6D6 solutions on by using Bruker AC400 (400 MHz) and Bruker AC300 (300 MHz) spectrometers. High-resolution mass spectra (HRMS) have been performed using a SYNAPT G2 HDMS (Waters) mass spectrometer equipped with a pneumatically assisted atmospheric pressure ionization (API) source. The sample was ionized in positive electrospray mode under the following conditions: electrospray voltage: 2.8 kV; port voltage: 20 V; Nebulizing gas flow rate (nitrogen): 100 L/h or in negative electrospray mode under the following conditions: electrospray voltage: −2.27 kV; port voltage: −20 V; Nebulizing gas flow rate (nitrogen): 100 L/h. The mass spectra (MS) were obtained with a time-of-flight (TOF) analyzer. The exact mass measurements were carried out in triplicate with external calibration. Homolysis constants were measured by EPR on an EMX Bruker spectrometer from 10^−4 M samples in tertbutyl benzene or in a mixture of H2O-nPrOH (1:1; v:v).
Kinetic experiments. Kinetics of A1–A7 (Scheme 2) for series L and D are performed by monitoring the growth of nitroxide by Electron Paramagnetic Resonance (X-band EMX Bruker machine) in tert-butylbenzene and a water/n-PrOH (for a good solubility of the alkoxyamine) as solvents and using O2 as alkyl radical scavenger to suppress the back reaction (kc in Scheme 2) as already reported. Homolysis rate constants kd are given by Equation (1) ([nitroxide]∞ = [alkoxyamine]0 = 0.1 mM, see Table S1) and the subsequent activation energies Ea given by Equation (2). (1) lnnitroxide∞−nitroxidet/nitroxide∞=−kd·t, (2) Ea=−RTlnkd/A.

[3] = C–ON bond homolysis in t-BuPh, EPR, T (°C): A1L 128.0, A3L 125.0, A5L 130.0, A6L 125, A7L 126.5, A1D 122.5, A3D 119.8, A5D 130
[4] = C–ON bond homolysis in water/n-PrOH v/v 1:1, EPR, T (°C): A1L 95.1, A3L 94.5, A4L 94.6, A5L 94.0, A6L 94.8, A7L 94.3, A1D 93.5, A3D 92.6, A4D 95.0, A5D 94.6

Compound | time to kill all parasites [1] | time to reach the death of half of the population of worms [1] | Activity/toxicity towards schistosomes (in words) [1] | CC50 (Vero cells) | Homolysis rate constant kd [2, 3] | Homolysis rate constant kd [2, 4] | Activation energy Ea ([2]; in t-BuPh) | Activation energy Ea ([2]; in water/n-PrOH v/v 1:1) | Time to Kill 50% of Parasites [1] | Time to Kill 100% of Parasites [1]
CC(C)[C@@H](NC(=O)[C@@H](Cc1ccccc1)NC(=O)OC(C)(C)C)C(=O)N[C@H](Cc1ccccc1)C(=O)OCc1ccccc1 [P6D, Benzyl (tert-butoxycarbonyl)-D-phenylalanyl-D-valyl-D-phenylalaninate] (Boc-[dF]-[dV]-[dF]-OBn) | 24 | 4 | unexpectedly toxic | 3.2 µM |  |  |  |  |  | 
CC(ON1C(C)(C)CCCC1(C)C)c1ccc(NC(=O)[C@@H](Cc2ccccc2)NC(=O)[C@H](NC(=O)[C@H](N)Cc2ccccc2)C(C)C)cc1 (stereo partly drawn) [A5D, (2R)-2-((R)-2-amino-3-phenylpropanamido)-3-methyl-N-((2R)-1-oxo-3-phenyl-1-((4-(1-((2,2,6,6-tetramethylpiperidin-1-yl)oxy)ethyl)phenyl)amino)propan-2-yl)butanamide] | 4 | 1 | toxic to schistosomes | 2.2 ± 0.3 µM | 11.6 10^−4 s^−1 | 1.3 10^−4 s^−1 | 132.7 kJ/mol | 128.5 kJ/mol |  | 
CC(C)[C@H](NC(=O)[C@H](Cc1ccccc1)NC(=O)OC(C)(C)C)C(=O)N[C@@H](Cc1ccccc1)C(=O)OCc1ccccc1 [P6L, Benzyl (tert-butoxycarbonyl)-L-phenylalanyl-L-valyl-L-phenylalaninate] (Boc-Phe-Val-Phe-OBn) |  |  |  | > 50 µM |  |  |  |  |  | 
CC(C)[C@H](NC(=O)[C@H](Cc1ccccc1)NC(=O)CCC(=O)OCc1ccccc1)C(=O)N[C@@H](Cc1ccccc1)C(=O)OCc1ccccc1 [P9L, Benzyl 4-(((S)-1-(((S)-1-(((S)-1-(benzyloxy)-1-oxo-3-phenylpropan-2-yl)amino)-3-methyl-1-oxobutan-2-yl)amino)-1-oxo-3-phenylpropan-2-yl)amino)-4-oxobutanoate] | 5 | 3 | unexpected toxicity | > 50 µM |  |  |  |  | 3 h | 5 h
CC(ON1C(C)(C)CCCC1(C)C)c1ccc(NC(=O)[C@@H](Cc2ccccc2)NC(=O)[C@H](NC(=O)[C@@H](Cc2ccccc2)NC(=O)OC(C)(C)C)C(C)C)cc1 (stereo partly drawn) [A3D, tert-butyl ((2R)-1-(((2R)-3-methyl-1-oxo-1-(((2R)-1-oxo-3-phenyl-1-((4-(1-((2,2,6,6-tetramethylpiperidin-1-yl)oxy)ethyl)phenyl)amino)propan-2-yl)amino)butan-2-yl)amino)-1-oxo-3-phenylpropan-2-yl)carbamate] |  |  |  | > 50 µM | 9.6 10^−4 s^−1 | 0.45 10^−4 s^−1 | 132.2 kJ/mol | 131.0 kJ/mol |  | 
CC(C)[C@@H](NC(=O)[C@H](N)Cc1ccccc1)C(=O)N[C@H](Cc1ccccc1)C(=O)OCc1ccccc1 [P8D, (R)-1-(((R)-1-(((R)-1-(benzyloxy)-1-oxo-3-phenylpropan-2-yl)amino)-3-methyl-1-oxobutan-2-yl)amino)-1-oxo-3-phenylpropan-2-aminium trifluoroacetate] (H-[dF]-[dV]-[dF]-OBn) | 1 | 1 | unexpectedly toxic | > 50 µM |  |  |  |  |  | 
CC(C)[C@H](NC(=O)[C@@H](N)Cc1ccccc1)C(=O)N[C@@H](Cc1ccccc1)C(=O)OCc1ccccc1 [P8L, (S)-1-(((S)-1-(((S)-1-(benzyloxy)-1-oxo-3-phenylpropan-2-yl)amino)-3-methyl-1-oxobutan-2-yl)amino)-1-oxo-3-phenylpropan-2-aminium trifluoroacetate] (H-Phe-Val-Phe-OBn) | 24 | 7 | unexpected toxicity | > 50 µM |  |  |  |  | 7 h | 24 h
CCc1ccc(NC(=O)[C@@H](Cc2ccccc2)NC(=O)[C@H](NC(=O)[C@H](N)Cc2ccccc2)C(C)C)cc1 [P22D, (R)-1-(((R)-1-(((R)-1-((4-ethylphenyl)amino)-1-oxo-3-phenylpropan-2-yl)amino)-3-methyl-1-oxobutan-2-yl)amino)-1-oxo-3-phenylpropan-2-aminium trifluoroacetate] | 24 | 4 | unexpectedly toxic | 11 µM |  |  |  |  |  | 
CCc1ccc(NC(=O)[C@@H](Cc2ccccc2)NC(=O)[C@H](NC(=O)[C@@H](Cc2ccccc2)NC(=O)OC(C)(C)C)C(C)C)cc1 [P21D, Tert-butyl ((R)-1-(((R)-1-(((R)-1-((4-ethylphenyl)amino)-1-oxo-3-phenylpropan-2-yl)amino)-3-methyl-1-oxobutan-2-yl)amino)-1-oxo-3-phenylpropan-2-yl)carbamate] | 24 | 5 | unexpectedly toxic | > 50 µM |  |  |  |  |  | 
